pIC50: −log10 of the molar value.
These compounds were tested against ROCK2 (human) (UniProt O75116) (assay: Inhibition of ROCK2 Kinase Activity).
ROCK2 (human), sequence (O75116 whole entry, looked up): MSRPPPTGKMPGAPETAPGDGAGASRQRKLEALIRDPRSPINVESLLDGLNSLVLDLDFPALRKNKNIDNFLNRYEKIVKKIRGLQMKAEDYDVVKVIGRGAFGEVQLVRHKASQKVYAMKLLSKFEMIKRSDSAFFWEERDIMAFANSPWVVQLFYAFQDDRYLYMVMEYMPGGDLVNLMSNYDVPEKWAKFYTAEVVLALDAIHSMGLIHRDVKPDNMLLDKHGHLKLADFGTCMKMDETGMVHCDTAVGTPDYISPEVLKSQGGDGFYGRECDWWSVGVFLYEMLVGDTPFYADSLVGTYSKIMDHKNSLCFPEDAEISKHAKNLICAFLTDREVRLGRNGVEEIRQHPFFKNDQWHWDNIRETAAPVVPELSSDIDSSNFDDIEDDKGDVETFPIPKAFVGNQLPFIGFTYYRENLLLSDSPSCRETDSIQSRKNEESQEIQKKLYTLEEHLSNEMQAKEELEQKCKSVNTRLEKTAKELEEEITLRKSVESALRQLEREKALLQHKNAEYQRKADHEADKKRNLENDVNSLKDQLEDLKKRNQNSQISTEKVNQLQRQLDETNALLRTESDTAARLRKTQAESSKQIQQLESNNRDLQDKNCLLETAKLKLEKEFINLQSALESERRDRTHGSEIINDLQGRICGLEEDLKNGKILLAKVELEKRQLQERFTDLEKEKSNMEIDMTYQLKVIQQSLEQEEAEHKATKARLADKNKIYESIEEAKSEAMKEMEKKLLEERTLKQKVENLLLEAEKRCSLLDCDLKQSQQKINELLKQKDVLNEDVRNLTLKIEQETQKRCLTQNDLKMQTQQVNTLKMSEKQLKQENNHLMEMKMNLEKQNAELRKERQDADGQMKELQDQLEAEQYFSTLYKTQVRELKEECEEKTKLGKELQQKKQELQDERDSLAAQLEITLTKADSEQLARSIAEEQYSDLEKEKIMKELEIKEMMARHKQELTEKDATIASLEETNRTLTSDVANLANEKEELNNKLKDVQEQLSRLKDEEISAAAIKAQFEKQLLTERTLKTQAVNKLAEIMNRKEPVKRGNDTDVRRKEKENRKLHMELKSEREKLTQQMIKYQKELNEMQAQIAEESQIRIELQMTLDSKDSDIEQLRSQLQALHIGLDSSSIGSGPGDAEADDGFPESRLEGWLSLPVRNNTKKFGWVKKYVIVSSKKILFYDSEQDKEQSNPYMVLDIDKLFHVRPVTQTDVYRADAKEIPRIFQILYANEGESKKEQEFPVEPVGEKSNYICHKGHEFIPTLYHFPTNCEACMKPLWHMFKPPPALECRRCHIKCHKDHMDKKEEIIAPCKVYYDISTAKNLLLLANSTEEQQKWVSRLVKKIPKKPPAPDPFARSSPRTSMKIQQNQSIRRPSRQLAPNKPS
For N#Cc1ccc2c(c1)CC(c1nc3ccc(-c4ccnc(N)n4)cc3[nH]1)CO2 (stereo unspecified), the pIC50 was 7.37. With Nc1nccc(-c2ccc3nc(C4COc5ccc(C(=O)NCc6ccccc6)cc5C4)[nH]c3c2)n1 (stereo unspecified) the pIC50 was greater than 9.00. Nc1nccc(-c2ccc3nc(C4COc5ccc(Br)cc5C4)[nH]c3c2)n1 (stereo unspecified) was tested, and the pIC50 was 8.00. Nc1nccc(-c2ccc3nc(C4COc5ccc(CC(=O)NC6CC6)cc5C4)[nH]c3c2)n1 (stereo unspecified) gave a pIC50 of 9.10. Work on CC(=O)c1ccc2c(c1)CC(c1nc3ccc(-c4ccnc(N)n4)cc3[nH]1)CO2 (stereo unspecified) yielded a pIC50 of 8.57. Work on Nc1nccc(-c2ccc3nc(C4COc5ccc(F)cc5C4)[nH]c3c2)n1 (stereo unspecified) yielded a pIC50 of 8.33. Work on CCCOc1ccc2c(c1)CC(c1nc3ccc(-c4ccnc(N)n4)cc3[nH]1)CO2 (stereo unspecified) yielded a pIC50 of 6.50. Compound NC(=O)c1ccc2c(c1)CC(c1nc3ccc(-c4ccnc(N)n4)cc3[nH]1)CO2 (stereo unspecified) has a pIC50 of 8.40. With CN(C)S(=O)(=O)c1ccc2c(c1)CC(c1nc3ccc(-c4ccnc(N)n4)cc3[nH]1)CO2 (stereo unspecified) the pIC50 was 7.40. Nc1nccc(-c2ccc3nc(C4COc5ccc(C(=O)NC6CC6)cc5C4)[nH]c3c2)n1 (stereo unspecified) showed a pIC50 of 8.92. In the case of Nc1nccc(-c2ccc3nc(C4COc5ccc(C(=O)NCCN6CCOCC6)cc5C4)[nH]c3c2)n1 (stereo unspecified), the pIC50 was 8.92.
